Data published in US20210386743A1, “USE OF PDE9 INHIBITORS FOR TREATMENT” (The Johns Hopkins University, priority 2018, published 2021).
Entries after “also recorded” stand apart in the source; their conditions may differ. Where two headings read alike, the source gives them in different places.

How the values were obtained:
[1] = test system: female mice, models of heart disease; conditions: cited from earlier work
[2] = test system: OVX+HFD+TAC female mice (C57BL/6N); assay: Echocardiography of cardiac function and structure in OVX+HFD+TAC female mice; assay type: in vivo, mouse; conditions: OVX+HFD+TAC females, vs vehicle; for left ventricular hypertrophy (LV Mass) / ejection fraction (EF) / fractional shortening (FS): serial echo, drug started 1 week after TAC; for left ventricular hypertrophy (LV Mass): oral gavage 20 mg/kg twice daily, 20 mg/kg
Method: (§1) All animals were fed a high fat diet (HFD) consisting of 60% kcal derived from fat was fed to both male and female C57BL6N mice for 3 months. Mice were divided into two groups: 1) Controls with intact ovaries; 2) Ovariectomized (Ovx) mice. Mice were assigned to receive trans-aortic constriction (TAC) or sham surgery after 3 months of HFD, and further randomized to placebo vehicle and PDE9-I (PDE9 inhibitor oral gavage 20 mg/kg twice daily) (FIG. 1). Comparison of Group 1 and 2 tests the efficacy of PDE9-I to ameliorate and/or reverse HFD and pressure-overload pathophysiology independent of sex hormone status.
(§2) Changes in cardiac function and structure were measured using echocardiogram, histopathology and markers of cardiac stress (Nppa Gene expression by RT-qPCR). For qPCR, RNA is isolated from left ventricular myocardium (Trizol Reagent, Invitrogen), reverse transcribed to cDNA (High Capacity RNA-to-cDNA Kit, Applied Biosystems, Life Technologies), and undergoes PCR amplification using TaqMan probes for atrial natriuretic peptide (Nppa) (mouse #Mm01255747_g1, rat #Rn00664637_g1). The threshold cycle value was determined using the crossing point method, and samples normalized to the GAPDH for each run. Echocardiography was performed in conscious mice using serial M-mode transthoracic echocardiography (VisualSonics Vevo 2100, 18-38 MHz transducer; SanoSite Inc.). Images were obtained and analyzed by an individual blinded to the animal condition.
(§3) Female mice (C57BL/6N) were placed on a 60% fat diet starting at age 5-weeks. Two weeks later, there were randomized to receive bilateral oophorectomy or sham surgery. Cardiac imaging for ventricular function and morphometry was determined 2 months later. Between 8-11 weeks after ovariectomy, the mice underwent a second surgical procedure introducing a mild aortic constriction (TAC) in the transverse aorta to increase pressure load on the heart. The purpose of the TAC procedure was to stimulate the heart to synthesize natriuretic peptide, which is important for the generation of cyclic GMP which PDE9 regulates. Serial echocardiograms were obtained, and starting 1 week after TAC, mice were further randomized to receive vehicle control or a PDE9 inhibitor (PF-7943). Intact mouse metabolic studies, fat/lean mass determinations, and heart function were assessed. At terminal study, tissues were harvested for molecular signaling.

[3] = test system: OVX+HFD+TAC female mice (C57BL/6N); assay: Body weight and body composition (EchoMRI) in OVX+HFD+TAC female mice; assay type: in vivo, mouse; conditions: OVX+HFD+TAC females
Method: as §1
(§4) Body composition: total fat mass, lean mass, and water content was determined by quantitative nuclear magnetic resonance (Echo-MRI®). In brief, after 20 weeks on the HFD, total body fat and lean body mass were assessed non-invasively by EchoMRI instrument. The analyzer delivers precise body composition measurements of fat, lean, free water, and total water masses in live animals weighing up to 100 grams. Conscious mice were placed in a constraint tube that was then inserted into the EchoMRI for a period of approximately 30 s and these measurements obtained.
as §3
After 20 weeks on the HFD+ 8 wks mTAC, total body fat and lean body mass were assessed non-invasively by EchoMRI.

[4] = test system: OVX+HFD+TAC female mice (C57BL/6N); assay: Whole body metabolism by indirect calorimetry (CLAMS metabolic cage) in OVX+HFD+TAC female mice; assay type: in vivo, mouse; conditions: OVX+HFD+TAC females, vs vehicle; for oxygen consumption (VO2): normalized to body mass
Method: as §1
(§5) Whole body metabolism: Indirect calorimetry was used to assess metabolic parameters in live animals using the OxyMAX Comprehensive Lab Animal Monitoring System (Columbus Instruments, Columbus Ohio). Basic metabolic rate (VO2 consumption), VCO2 release and energy expenditure (EE) were measured by indirect calorimetry in high-fat-fed OVX mice groups treated with (Drug) and without PDE9 inhibitor (Control). Respiratory exchange ratio (RER) was calculated from VCO2 release-to-VO2 consumption ratio (VCO2 release/VO2 consumption). CLAMS cabinet was used to measure oxygen consumption rate at 22° C. (VO2), CO2 emission, respiratory exchange ratio, heat production, food consumption (g consumed per day), and total and ambulatory activity per day.
as §3
RER is calculated from VCO2/VO2 ratio. […] Even if fat mass is assumed to contribute only 15% of total metabolic activity relative to lean mass, these differences remain significant (data not shown). […] P values are for unpaired t-tests between groups.

[5] = test system: OVX+HFD+TAC female mice (C57BL/6N); assay: Fasting blood markers of metabolic syndrome and liver histology in OVX+HFD+TAC female mice; assay type: in vivo, mouse; conditions: for hepatic fat accumulation (liver histology): OVX females on HFD, vs no additional therapy; for fasting blood glucose / fasting blood total cholesterol / fasting total blood triglycerides: OVX+HFD+TAC females, end of study
Method: as §1, §3
Multiple biomarkers of metabolic syndrome and fat accumulation in the liver were improved in OVX+HFD+TAC female mice by PDE9 inhibition (FIG. 8). Data are shown at end-of study for fasting blood glucose, cholesterol, triglycerides, and histology of the liver.

[6] = test system: C57BL6/N female mice with intact ovaries, HFD+TAC; assay: Body weight and body composition in HFD+TAC female mice with intact ovaries; assay type: in vivo, mouse; conditions: females with intact ovaries, vs vehicle
Method: as §1, §4
(§6) In a second experiment, we examined the impact of PDE9 inhibition on female mice (C57BL6/N) subjected to HFD+TAC, but without ovariectomy and thus had normal estrogen levels.

[7] = test system: C57BL6/N female mice with intact ovaries, HFD+TAC; assay: Whole body metabolism (indirect calorimetry) in HFD+TAC female mice with intact ovaries; assay type: in vivo, mouse; conditions: females with intact ovaries, HFD + pressure overload
Method: as §1, §5, §6

[8] = test system: female mice, high fat diet induced obesity plus mild pressure stress; assay: Cardiac disease in obese (HFD) female mice with mild pressure stress on the heart; assay type: in vivo, mouse; conditions: females; high fat diet induced obesity and metabolic syndrome + mild pressure stress on the heart
Source text: Our laboratory has studied the impact of PDE9 inhibition on the heart, in particular in male mice subjected to pressure overload stress to induced cardiac hypertrophy, dysfunction, and pathological fibrosis. Over the past 1.5 years, we have turned to females, and in particular added the impact of high fat diet induced obesity and metabolic syndrome. This is then combined with a mild pressure stress on the heart to stimulate production of natriuretic peptides and some hypertrophy of the heart muscle. […] However, there was minimal impact on peripheral body weight, metabolism, or fat mass in these studies.

[9] = test system: male HFD+TAC mice; assay: Cardiac remodeling (echocardiography, Nppa RT-qPCR) in obese male HFD+TAC mice; assay type: in vivo, mouse; conditions: vs vehicle; for natriuretic peptide (Nppa) gene expression in myocardium: RT-qPCR; for cardiac hypertrophy (LV mass): drug started 1 week after TAC
Method: as §1, §2
(§7) In a third experiment, we exposed male mice of a similar starting age (5 weeks) to the same HFD protocol, and then same TAC protocol. As before, mice were randomized to either vehicle control or active PDE9-inhibitor starting 1 week after the TAC procedure. FIG. 11.

[10] = test system: male HFD+TAC mice; assay: Body weight and body composition in male HFD+TAC mice; assay type: in vivo, mouse; conditions: listed as PDE9-inhibitor
Method: as §1, §4
In a third experiment, we exposed male mice of a similar starting age (5 weeks) to the same HFD protocol, and then same TAC protocol. […]

[11] = test system: male HFD+TAC mice; assay: Whole body metabolism (indirect calorimetry) in male HFD+TAC mice; assay type: in vivo, mouse
Method: as §1, §5, §7

[12] = end of study, listed as PDE9 inhibitor

CCCc1nn(C)c2c(=O)[nH]c(-c3cc(S(=O)(=O)N4CCN(C)CC4)ccc3OCC)nc12 [sildenafil]
treatment of heart disease ([1]; female mice with ovaries, several models of heart disease): successfully treated
treatment of heart disease ([1]; female mice, ovaries first removed): totally ineffective
treatment of heart disease ([1]; female mice, ovaries removed, exogenous estrogen replacement): rescued

C[C@@H]1CN(Cc2ncccn2)C[C@H]1c1nc2c(cnn2C2CCOCC2)c(=O)[nH]1 [PF 04447943]
cardiac output ([2]; end of study): restoration towards normal control values
ejection fraction ([2]; end of study): restoration towards normal control values
ventricular end-diastolic volume (Volume, d) ([2]; end of study): restoration towards normal control values
ventricular end-systolic volume (Volume, s) ([2]; end of study): restoration towards normal control values
early to late atrial (E/A) filling [2, 12]: restored; also recorded: restoration towards normal control values
isovolumic ventricular relaxation time (IVRT) [2, 12]: restored; also recorded: restoration towards normal control values
left ventricular hypertrophy (LV Mass) [2]: reduced left ventricular hypertrophy
left ventricular hypertrophy (LV Mass) ([2]; listed as PDE9 inhibitor): reduced LV mass
ejection fraction (EF) [2]: greater
fractional shortening (FS) [2]: greater fractional shortening
ejection fraction (EF) ([2]; listed as PDE9 inhibitor): improved FS and EF
fractional shortening (FS) ([2]; listed as PDE9 inhibitor): improved FS
relative weight reduction compared to OVX mice on normal diet [3]: ~30%
absolute lean body mass ([3]; EchoMRI): no change in absolute lean body mass
percent body fat ([3]; EchoMRI): reduced percent body fat
percent lean body mass ([3]; EchoMRI): increased percent lean body mass
fat weight ([3]; EchoMRI, 20 weeks HFD + 8 wks mTAC): significant decline in fat weight
body weight decline ([3]; PDE9 inhibitor treatment): ~20%
oxygen consumption (VO2) ([4]; listed as PDE9I): increases total oxygen consumption normalized to body mass
oxygen consumption (VO2) ([4]; listed as PDE9 inhibitor): increases in oxygen consumption
carbon dioxide generation (VCO2) ([4]; normalized to total body mass): increases
calculated energy expenditure (heat) [4]: increased
respiratory exchange ratio (RER) [4]: not significantly altered
hepatic fat accumulation (liver histology) ([5]; listed as PDE9-I): markedly reduced
hepatic fat accumulation (liver histology) ([5]; listed as PDE9 inhibitor): marked reduction of fat accumulation in the liver
fasting blood glucose ([5]; listed as PDE9-I): reduced
fasting blood total cholesterol ([5]; listed as PDE9-I): reduced
fasting total blood triglycerides ([5]; listed as PDE9-I): reduced
fasting blood glucose ([5]; listed as PDE9 inhibitor): reduced towards normal control levels
fasting blood total cholesterol ([5]; listed as PDE9 inhibitor): reduced towards normal control levels
fasting total blood triglycerides ([5]; listed as PDE9 inhibitor): reduced towards normal control levels
fat mass ([6]; listed as PDE0-I): no significant change
lean mass ([6]; listed as PDE0-I): no significant change
percent fat mass ([6]; listed as PDE0-I): no significant change
percent lean mass ([6]; listed as PDE0-I): no significant change
total body weight ([6]; listed as PDE0-I): no significant change
fat mass ([6]; listed as PDE9 inhibitor): did not have any alteration
lean mass ([6]; listed as PDE9 inhibitor): did not have any alteration
percent fat mass ([6]; listed as PDE9 inhibitor): did not have any alteration
percent lean mass ([6]; listed as PDE9 inhibitor): did not have any alteration
total body weight ([6]; listed as PDE9 inhibitor): did not have any alteration
calculated energy expenditure [7]: do not show any changes
CO2 production ([7]; listed as PDE9-I): no difference
overall oxygen consumption ([7]; listed as PDE9-I): no difference
respiratory exchange ratio ([7]; listed as PDE9-I): no difference
CO2 production ([7]; listed as PDE9i): do not show any changes
overall oxygen consumption ([7]; listed as PDE9i): do not show any changes
respiratory exchange ratio ([7]; listed as PDE9i): do not show any changes
cardiac disease [8]: can indeed ameliorate cardiac disease
natriuretic peptide (Nppa) gene expression in myocardium ([9]; listed as PDE9-I): reduced
natriuretic peptide (Nppa) gene expression in myocardium ([9]; listed as PDE9-inhibitor): reduced by active therapy
cardiac hypertrophy (LV mass) ([9]; listed as PDE9-inhibitor): reduced left heart mass
cardiac hypertrophy (LV mass) ([9]; listed as PDE9 inhibitor): significantly lowers cardiac hypertrophy
ejection fraction ([9]; listed as PDE9-inhibitor): increases in both fractional shortening and ejection fraction
fractional shortening ([9]; listed as PDE9-inhibitor): increases in both fractional shortening and ejection fraction
ejection fraction ([9]; listed as PDE9 inhibitor): improves cardiac function
fractional shortening ([9]; listed as PDE9 inhibitor): improves cardiac function
total body weight / body mass [10]: only borderline altered; also recorded: trend towards reduced body weight
total fat mass / body fat [10]: significant reduction in total fat mass; also recorded: decline in body fat
CO2 generation [11]: did not display consistent changes
RER [11]: did not display consistent changes
energy expenditure (heat generation) ([11]; listed as PDE9-inhibitor): did not demonstrate increases; also recorded: did not display consistent changes
oxygen consumption (metabolic rate) ([11]; listed as PDE9-inhibitor): did not demonstrate increases; also recorded: did not display consistent changes
